Reference: patent publication US9561190B2, “Nonwoven membrane as a drug delivery system” (priority 2012, dated 2017)

Tests used:
Type in all cases: cell-based
LAN-1 = assay: MTS cell viability assay, soluble SN-38 on LAN-1 neuroblastoma cells; details: LAN-1 cells, 4 hours exposure, viability 4 days later
Protocol: (§1) To determine whether the antitumor activity of the drug was conserved after the manufacturing process of the membranes, the present inventors co-incubated the membranes with neuroblastoma cell lines. In a previous experiment, the present inventors determined the extent to which SN-38 inhibits neuroblastoma. Such experiment was performed by exposing LAN-1, SK-N-BE(2)c and SK-N-AS cell lines to a fresh solution of SN-38 in RPMI, prepared from a stock solution of SN-38, 1 mg/mL in DMSO. Briefly, cells were plated in 96 well plates, 3000 cells per well, in RPMI medium. 24 hours later, the cells were exposed to SN-38 (concentration range 10-0.000001 μM). After 4 hours, the drug was withdrawn and fresh medium was added. The viability of the cell culture was quantified 4 days later, by using the MTS cell viability assay (Promega).
(§2) Each dot represents the mean (±SD) of 3-5 wells.

SK-N-BE(2)c = assay: MTS cell viability assay, soluble SN-38 on SK-N-BE(2)c neuroblastoma cells; details: SK-N-BE(2)c cells, 4 hours exposure, viability 4 days later
Protocol: as §1, §2

SK-N-AS = assay: MTS cell viability assay, soluble SN-38 on SK-N-AS neuroblastoma cells; details: 4 hours exposure, viability 4 days later
Protocol: as §1, §2

CCc1c2c(nc3ccc(O)cc13)-c1cc3c(c(=O)n1C2)COC(=O)[C@]3(O)CC [SN-38, 7-ethyl-10-hydroxycamptothecin]
IC50 (LAN-1): 10 nM
IC50 (SK-N-BE(2)c): 46 nM
IC50 (SK-N-AS): 190 nM
